Experimental data as given in patent US7476670B2, “Purine derivatives, method for preparing, pharmaceutical compositions and novel use” (Aventis Pharma S.A., priority 2003, dated 2009).
Structures can show the parent of a compound that is named as a salt. Where two headings read alike, the source gives them in different places.

Assays:
Type in all cases: biochemical
[1] = biological target: CaCiv1 (Candida albicans, UniProt A0A1D8PH53); test: Assay for inhibition of CIV-CDK (CIV1) activity
Excerpt: 1) Assay for Inhibition of CIV-CDK (CIV1) Activity
a) Preparation of the Reagents

[2] = biological target: Cyclin Dependent kinase 2 (CDK2) (Homo sapiens, UniProt P24941); test: Assay for inhibition of CDK2 activity; conditions: [33P]ATP, read-out: percentage inhibition at 20 μM
Protocol: The inhibition of the kinase activity of Cyclin Dependent kinase 2 (CDK2) is determined by measuring the phosphorylation of its substrate peptide.
The assay is carried out in a final volume of 50 μl.
The incubation buffer as follows:
• 50 mM Hepes/NaOH pH 7.5 • 10 mM MgCl2 • 1 mM DTT 5 μl of the 10-times concentrated inhibitor are added to 25 μl of incubation buffer containing 0.8 U/μL final concentration of the enzyme; 10 μL of incubation buffer containing 0.0025 mg/ml of peptide substrate are then added and, finally, 10 μL of incubation buffer containing 2 mM ATP and radiolabeled ATP, [^33P]ATP (0.25 μCi), are added. The reaction is stopped after incubation for 10 minutes at 37° C. • Results obtained expressed as percentage inhibition at 20 μM • Example 2 97% • Example 27 97% • Example 30 99% 4) Assay for Inhibition of CDK1 Activity

[3] = tested on: Abl kinase; test: Assay for inhibition of Abl activity; conditions: fluorescence polarization
Protocol: The inhibition of the kinase activity is determined by fluorescence polarization, the Abl kinase phosphorylates a peptide detected by adding an anti-phosphopeptide antibody coupled to a fluorescent label.
The assay is carried out in a final volume of 50 μl; all the reagents are prepared in a buffer: • 20 mM Hepes/NaOH pH 7.5 • 5 mM MgCl2 • 100 μM Na2VO4 • 1 mM DTT • 100 μM EDTA/NaOH • 0.01% Brij35 5 μl of the 10-times concentrated inhibitor are added to 25 μl of enzyme (1000 U/ml final concentration), (Calbiochem ref 102555). After incubation for 5 minutes at ambient temperature, 10 μL of PolyGT (400 ng/ml final concentration) and 10 μL of ATP (5 μM final concentration) are added. The detection is carried out after incubation for 15 minutes at 30° C. • Results obtained expressed as percentage inhibition at 20 μM • Example 24 100% • Example 2 100% • Example 32 100% 6) Assay for Inhibition of ZAP Kinase Activity

[4] = biological target: GSK3beta (Homo sapiens, UniProt P49841); test: Assay for inhibition of GSK3beta activity; conditions: [33P]ATP; read-out: IC50s expressed as micromolar
Protocol: (§1) The inhibition of the kinase activity is determined by measuring the phosphorylation of its substrate peptide.
The assay is carried out in a final volume of 40 μl; all the reagents are prepared in a buffer: • 50 mM HEPES pH 7.5 • 0.03% triton X100 • 10 mM MgCl2 • 5% Glycerol • 1 mM DTT 10 μl of the 10-times concentrated inhibitor are added to 5 μl of enzyme (20 ng final concentration), and 5 μl of peptide (1 μM final concentration) then 2.5 μof incubation buffer containing 16 μM ATP and 2.5 μl of radiolabeled ATP, [^33P]ATP (50 nCi) are added. After incubation for 15 minutes at ambient temperature, 10 μl of incubation buffer containing 1 μM of substrate.

[5] = biological target: PLK1 (Homo sapiens, UniProt P53350); test: Assay for inhibition of PLK1 activity; conditions: [33P]ATP; read-out: IC50s expressed as micromolar
Protocol: as §1
The assay is carried out in a final volume of 40 μl; all the reagents are prepared in a buffer: • 50 mM HEPES pH 7.5 • 0.03% triton X100 • 10 mM MgCl2 • 5% Glycerol • 1 mM DTT 10 μl of the 10-times concentrated inhibitor are added to 5 μl of enzyme (75 ng final concentration), and 5 μl of peptide (1 μM final concentration), then 2.5 μl of incubation buffer containing 40 μM ATP and 2.5 μl of radiolabeled ATP, [^33P]ATP (500 nCi), are added. After incubation for 15 minutes at ambient temperature, 10 μl of incubation buffer containing 192 nM of substrate. […] Reference method for broth dilution antifungal susceptibility testing of yeasts. Approved Standard M27-A. NCCLS, Villanova, Pa.); the minimum concentration with which a visible decrease is observed in the cloudiness of the cell growth (at least 80% compared to a control without product) is the Minimum Inhibitory Concentration (MIC) of the antifungal agent with respect to the strain tested.

[6] = biological target: T1, SRC kinase (Homo sapiens, UniProt P12931); test: Assay for inhibition of SRC kinase activity; conditions: fluorescence polarization, read-out: percentage inhibition at 20 μM
T1 construct: purchased Upstate Biotechnology 14-117
Protocol: 2) Assay for Inhibition of SRC Kinase Activity
The inhibition is determined by fluorescence polarization, the […] kinase phosphorylates a peptide detected by adding an anti-phosphopeptide antibody coupled to a fluorescent label.
The assay is carried out in a final volume of 50 μl; all the reagents are prepared in a buffer: • 25 mM HEPES/NaOH pH 7.6 • 5 mM MgCl2 • 2 mM MnCl2 • 50 μM Na2VO4 5 μl of the 10-times concentrated inhibitor are added to 25 μl of enzyme (12 U/ml final concentration), (Upstate Biotechnology ref 14-117). After incubation for 5 minutes at ambient temperature, 10 μl of PolyGluTyr 4/1 (150 ng/ml final concentration) and 10 μl of ATP (5 μM final concentration) are added. The detection is carried out after incubation for 20 minutes at ambient temperature. • Results obtained expressed as percentage inhibition at 20 μM • Example 8 98% • Example 15 99% • Example 20 99% • Example 24 99% • Example 27 95% • Example 30 99% • Example 32 100% • Example 38 95% 3) Assay for Inhibition of CDK2 Activity

[7] = biological target: T2, ZAP kinase (Homo sapiens, UniProt P43403); test: Assay for inhibition of ZAP kinase activity; conditions: fluorescence polarization, read-out: percentage inhibition at 20 μM
T2 construct: purchased Panvera P2782
T2 sequence (P43403 1-619): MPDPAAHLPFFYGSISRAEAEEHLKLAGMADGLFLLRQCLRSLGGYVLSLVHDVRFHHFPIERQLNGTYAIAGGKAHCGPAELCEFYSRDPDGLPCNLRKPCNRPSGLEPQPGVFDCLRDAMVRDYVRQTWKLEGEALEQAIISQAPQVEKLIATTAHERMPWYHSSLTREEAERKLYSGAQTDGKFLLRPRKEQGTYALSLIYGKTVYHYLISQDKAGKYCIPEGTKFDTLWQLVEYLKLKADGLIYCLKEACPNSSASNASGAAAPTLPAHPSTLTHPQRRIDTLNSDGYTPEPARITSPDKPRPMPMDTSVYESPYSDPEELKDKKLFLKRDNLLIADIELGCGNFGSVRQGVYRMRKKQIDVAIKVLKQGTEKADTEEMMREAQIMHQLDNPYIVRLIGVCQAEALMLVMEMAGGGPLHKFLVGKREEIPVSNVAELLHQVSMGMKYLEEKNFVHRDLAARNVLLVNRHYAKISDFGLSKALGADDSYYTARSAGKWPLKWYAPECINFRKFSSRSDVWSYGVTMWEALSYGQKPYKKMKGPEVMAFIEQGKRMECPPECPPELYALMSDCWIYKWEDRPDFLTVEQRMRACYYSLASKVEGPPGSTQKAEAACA
Protocol: The inhibition of the kinase activity is determined by fluorescence polarization, the ZAP kinase phosphorylates a peptide detected by adding an anti-phosphopeptide antibody coupled to a fluorescent label.
The assay is carried out in a final volume of 50 μl; all the reagents are prepared in a buffer: • 20 mM Tris/HCl pH 7.7 • 7 mM MnCl2 • 50 μM Na2VO4 5 μl of the 10-times concentrated inhibitor are added to 25 μl of enzyme (0.7 μg/ml final concentration) (Panvera ref P2782). After incubation for 5 minutes at ambient temperature, 10 μl of PolyGT (300 ng/ml final concentration) and 10 μl of ATP (0.25 μM final concentration) are added. The detection is carried out after incubation for 15 minutes at ambient temperature. • Results obtained expressed as percentage inhibition at 20 μM • Example 8 98% • Example 20 95% • Example 24 96% 7) Assay for Inhibition of Casein Kinase II Activity

[8] = biological target: JNK3 kinase (Homo sapiens, UniProt P53779); test: Assay for inhibition of JNK3 activity; conditions: fluorescence polarization, ATP 6 μM; read-out: IC50s expressed as micromolar
Protocol: The inhibition of the kinase activity is determined by fluorescence polarization, the JNK3 kinase phosphorylates a peptide detected by adding an anti-phosphopeptide antibody coupled to a fluorescent label.
The assay is carried out in a final volume of 30 μl; all the reagents are prepared in a buffer: • 50 mM HEPES pH 7.5 • 0.03% triton X100 • 10 mM MgCl2 • 5% Glycerol • 1 mM DTT 10 μl of the 10-times concentrated inhibitor are added to 5 μl of enzyme (40 ng final concentration), and 5 μl of incubation buffer containing 100 ng of substrate and 10 μl of ATP (6 μM final concentration) are added.

[9] = CaCiv1 with Cdk2 substrate, [33P]ATP, 30 min ambient temperature, read-out: IC50 as micromolar

Chain of CaCiv1 (A0A1D8PH53 entry or part of it): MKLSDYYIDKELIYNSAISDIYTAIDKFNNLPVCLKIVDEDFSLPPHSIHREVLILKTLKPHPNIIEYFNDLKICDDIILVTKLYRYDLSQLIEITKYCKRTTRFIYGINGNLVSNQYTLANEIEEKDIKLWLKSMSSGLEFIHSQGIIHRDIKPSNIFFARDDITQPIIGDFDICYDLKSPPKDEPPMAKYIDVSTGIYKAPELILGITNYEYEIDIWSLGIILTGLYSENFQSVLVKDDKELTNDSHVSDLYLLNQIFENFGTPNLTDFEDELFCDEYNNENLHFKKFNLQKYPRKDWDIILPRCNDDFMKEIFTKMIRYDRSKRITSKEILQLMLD
Chain of PLK1 (P53350 whole entry, species assumed): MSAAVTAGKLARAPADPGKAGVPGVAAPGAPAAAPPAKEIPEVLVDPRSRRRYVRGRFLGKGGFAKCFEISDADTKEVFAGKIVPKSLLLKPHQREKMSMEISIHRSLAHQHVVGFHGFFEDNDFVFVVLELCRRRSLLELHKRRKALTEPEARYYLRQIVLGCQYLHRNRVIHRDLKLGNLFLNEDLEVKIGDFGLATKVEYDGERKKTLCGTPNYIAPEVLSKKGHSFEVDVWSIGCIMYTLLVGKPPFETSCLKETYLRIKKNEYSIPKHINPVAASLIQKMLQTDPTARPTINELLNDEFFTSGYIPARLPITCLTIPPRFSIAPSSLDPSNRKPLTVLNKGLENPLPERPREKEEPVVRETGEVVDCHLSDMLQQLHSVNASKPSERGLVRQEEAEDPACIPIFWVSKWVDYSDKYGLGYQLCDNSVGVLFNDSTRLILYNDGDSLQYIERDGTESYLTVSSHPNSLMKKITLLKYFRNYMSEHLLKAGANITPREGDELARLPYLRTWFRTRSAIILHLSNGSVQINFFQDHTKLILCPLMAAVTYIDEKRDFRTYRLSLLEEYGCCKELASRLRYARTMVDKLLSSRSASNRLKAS
Chain of JNK3 kinase (P53779 whole entry): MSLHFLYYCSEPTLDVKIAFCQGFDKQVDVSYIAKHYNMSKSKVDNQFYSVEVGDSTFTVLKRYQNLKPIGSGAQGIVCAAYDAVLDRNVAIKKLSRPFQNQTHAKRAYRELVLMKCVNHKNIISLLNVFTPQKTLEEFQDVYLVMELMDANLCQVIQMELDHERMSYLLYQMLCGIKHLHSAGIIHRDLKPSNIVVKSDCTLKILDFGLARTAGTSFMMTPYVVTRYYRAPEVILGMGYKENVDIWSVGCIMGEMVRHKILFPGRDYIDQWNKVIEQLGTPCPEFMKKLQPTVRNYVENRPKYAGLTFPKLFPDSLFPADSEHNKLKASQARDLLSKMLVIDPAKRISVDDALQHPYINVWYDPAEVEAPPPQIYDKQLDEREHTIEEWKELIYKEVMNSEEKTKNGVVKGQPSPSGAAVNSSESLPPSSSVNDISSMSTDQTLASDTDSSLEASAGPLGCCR
Chain of GSK3beta (P49841 whole entry, species assumed): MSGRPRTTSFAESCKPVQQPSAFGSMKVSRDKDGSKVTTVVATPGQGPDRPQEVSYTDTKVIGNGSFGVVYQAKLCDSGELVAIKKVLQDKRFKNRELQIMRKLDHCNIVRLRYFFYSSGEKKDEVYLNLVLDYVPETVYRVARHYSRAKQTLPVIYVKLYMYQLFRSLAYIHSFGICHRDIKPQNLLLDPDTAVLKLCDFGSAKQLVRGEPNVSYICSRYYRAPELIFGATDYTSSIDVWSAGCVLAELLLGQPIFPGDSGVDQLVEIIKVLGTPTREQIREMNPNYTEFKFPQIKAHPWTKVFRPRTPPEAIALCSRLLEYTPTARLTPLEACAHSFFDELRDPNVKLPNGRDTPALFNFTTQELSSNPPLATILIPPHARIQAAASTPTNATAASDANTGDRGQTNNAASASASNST
T1 sequence (P12931 whole entry): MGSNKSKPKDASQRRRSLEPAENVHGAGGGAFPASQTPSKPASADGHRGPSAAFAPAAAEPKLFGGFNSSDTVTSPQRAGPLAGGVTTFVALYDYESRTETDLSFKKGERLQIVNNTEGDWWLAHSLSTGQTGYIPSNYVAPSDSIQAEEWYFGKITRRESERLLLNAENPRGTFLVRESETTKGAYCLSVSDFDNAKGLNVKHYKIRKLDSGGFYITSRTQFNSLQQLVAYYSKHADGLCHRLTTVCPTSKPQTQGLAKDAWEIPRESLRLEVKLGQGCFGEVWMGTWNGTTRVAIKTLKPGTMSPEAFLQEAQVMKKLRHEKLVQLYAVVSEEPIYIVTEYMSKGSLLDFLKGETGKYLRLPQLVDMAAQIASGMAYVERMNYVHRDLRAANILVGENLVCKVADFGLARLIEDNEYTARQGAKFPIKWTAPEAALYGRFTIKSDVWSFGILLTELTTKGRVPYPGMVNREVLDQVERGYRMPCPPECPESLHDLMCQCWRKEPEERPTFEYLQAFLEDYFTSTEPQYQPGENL

Molecule | percentage inhibition at 20 μM [3] [%] | IC50 [4] [µM] | IC50 [1, 9] [µM] | IC50 [5] [µM] | IC50 [8] [µM] | other results
Cl.Cl.N[C@H]1CC[C@H](Nc2nc(-n3cnc4ccccc43)c3nc[nH]c3n2)CC1 [Example 2, Trans-N-[6-(1H-benzimidazol-1-yl)-9H-purin-2-yl]-1,4-cyclohexanediamine dihydrochloride] | 100 | 0.6 | – | – | – | IC50 [1]: 0.5 µM; inhibition at 20 µM [2]: 97%
OCC(CO)Nc1nc(-n2cnc3ccccc32)c2nc[nH]c2n1 [Example 18, 2-[[6-(1H-benzimidazol-1-yl)-9H-purin-2-yl]amino]-1,3-propanediol] | – | – | 3.9 | 0.16 | – | –
O[C@H]1CC[C@H](Nc2nc(-n3cnc4ccccc43)c3nc[nH]c3n2)CC1 [Example 24, Trans-4-[[6-(1H-benzimidazol-1-yl)-9H-purin-2-yl]amino]cyclohexanol] | 100 | – | 0.39 | – | – | inhibition at 20 µM [6]: 99%; inhibition at 20 µM [7]: 96%
CC1Cc2ccccc2N1c1nc(N[C@H]2CC[C@H](N)CC2)nc2[nH]cnc12 (stereo partly drawn) [Example 26, dihydrochloride] | – | 1.3 | – | – | 0.31 | –
Trans-N-[6-(5,6-dichloro-2,3-dihydro-1H-indol-1-yl)-9H-purin-2-yl]-1,4-cyclohexanediamine dihydrochloride [Example 1] | – | – | 0.8 | 0.21 | 0.29 | –
